Experimental data taken from patent US8227240B2, “Systems for screening pharmaceutical chemicals” (The Washington University, priority 2001, dated 2012).

Test system: reconstituted tissue membrane (fibroblast non-muscle myosin / actin cytoskeleton)
Test: Tissue indentation method in 96-well plate: peak force of reconstituted tissue membrane
Assay type: cell-based
Protocol: A triangular frame made of stainless steel wire 1 mm in diameter was employed as a scaffold on which the reconstituted tissue formed. The wells are slightly tapered toward the bottom and the frame is securely positioned 1 mm above the bottom of the well (FIG. 11a). The non-polymerized solution of collagen containing cells and appropriate cell culture media as described above was poured into the wells filling the wells to a level 3 mm above the bottom (FIG. 11b). The 96-well plate was incubated at 37° C. with 5% CO2. During the incubation, cells compressed collagen matrices by squeezing liquid out from the porous collagen matrix. Without the wire frame, the reconstituted tissue contracted into a small sphere floating in the tissue culture medium. It was discovered that by utilizing different shapes of wire frames the collagen matrix was compressed into shapes corresponding to shapes of the frames. Other wire frame shapes, such as one shown in FIG. 11b, produced tissue strips with different widths. A porous support material such as a Velcro fastener was not required to facilitate tissue adhesion even to the non-porous stainless steel surfaces of a wire. The collagen was compressed to a greater extent at the outer portion of the membrane or strip. Therefore, this outer portion of the membrane can withstand stress produced by the cells and prevented it from ripping the membrane off the wire frame.
To assess the response of the tissue model samples to test agents, the resistance of the tissue samples to stretch is measured by a probe coupled to a force transducer. The stiffness of the tissue is related to the force required to move the probe by a specified amount once the probe contacts the tissue. […]
The stage is raised until the probe tip touches the membrane or strip of reconstituted tissue. Contact of the tip with the sample is detected by a sudden increase in the force registered by the isometric force transducer. […] During this trajectory the tip comes in contact with the tissue specimen and stretches it as the force is continually recorded by a data recorder. […]

`C=C1[C@@H](C)[C@H]2[C@H](Cc3ccccc3)NC(=O)[C@]23[C@H](OC(C)=O)/C=C/[C@@](C)(O)C(=O)[C@@H](C)C/C=C/[C@H]3[C@@H]1O` [CD, cytochalasin D] was tested, and the “decrease of peak force from its initial level” value (40 nM CD, nearly 15 min after addition, after 20% FBS) was “about 40%”, the peak force (2 μM CD, 20 min after addition) was “further reduction” and the “reduction of the height of the force peaks” value (96-well plate, after 10% FBS) was 60%.
